One experiment concerns E. coli HK101. As to conditions: quarter strength Mueller-Hinton broth, overnight, 37° C. The source says: To investigate the activity of the A3-APO metabolites, Chex1-Arg20 single chain unit and an Arg7-Arg20 common cleavage fragment were synthesized and […], a true measure of potential clinical viability (Otvos et al., 2005. J. Med. Chem. 48: 5349-5359). The peptides of the invention were made on a CEM Liberty automated synthesizer with standard Fmoc-chemistry. The peptides were detached from the resin with the carboxyl terminus of the C-terminal Arg residue being in the form of an amino amide, —C(O)—NH2 (“Chex1-Arg20-NH2” and “Arg7-Arg20-NH2”), while still in the microwave chamber, and were purified by RP-HPLC. […] The biological studies carried out on chemically synthesized peptides in this example and succeeding examples were carried out on the C-terminal modified versions of the peptides wherein the C-terminal carboxylic acid function was in the form of an amide, —C(O)—NH2. […] The cell concentrations were estimated by measuring the ultraviolet absorbance at 600 nm and applying the formula cfu/mL=A600(3.8×10^8), where cfu is the number of colony-forming units. […] Cultures were then incubated at 37° C., 5% CO2 for 16-20 h without shaking, and growth inhibition was measured by recording the absorbance at 600 nm using a microplate reader. […]
Following the protocol of Example 2, minimal inhibitory concentrations of the Chex1-Arg20 peptide against selected bacteria was determined. […]

Experiment [1] concerns A. baumannii ATCC BBA-1605. From the text: (§1) To investigate the activity of the A3-APO metabolites, Chex1-Arg20 single chain unit and an Arg7-Arg20 common cleavage fragment were synthesized and studied for their ability to kill Enterobacteriaceae strains in undiluted Muller-Hinton broth, a true measure of potential clinical viability (Otvos et al., 2005. J. Med. Chem. 48: 5349-5359). The peptides of the invention were made on a CEM Liberty automated synthesizer with standard Fmoc-chemistry. The peptides were detached from the resin with the carboxyl terminus of the C-terminal Arg residue being in the form of an amino amide, —C(O)—NH2 (“Chex1-Arg20-NH2” and “Arg7-Arg20-NH2”), while still in the microwave chamber, and were purified by RP-HPLC. […] The biological studies carried out on chemically synthesized peptides in this example and succeeding examples were carried out on the C-terminal modified versions of the peptides wherein the C-terminal carboxylic acid function was in the form of an amide, —C(O)—NH2. Antibacterial growth inhibition assays were performed using sterile 96-well polypropylene plates (Nunc F96 microtiter plates) in a final volume of 100 μL as described previously (Cudic et al., 2002. Peptides 23: 271-283). The cell concentrations were estimated by measuring the ultraviolet absorbance at 600 nm and applying the formula cfu/mL=A600(3.8×10^8), where cfu is the number of colony-forming units. Briefly, 50 μL of a suspension of midlogarithmic phase bacterial cultures diluted to 5×10^5 cfu/mL in Muller-Hinton broth (MHB) was added to 50 μL of serially diluted peptides also dissolved in MHB. The final peptide concentration was 128 μg/mL. Cultures were then incubated at 37° C., 5% CO2 for 16-20 h without shaking, and growth inhibition was measured by recording the absorbance at 600 nm using a microplate reader. […] The minimal inhibitory concentration indicates the lowest peptide dose where no visible bacterial growth is detected after 16 hours incubation in full strength Muller-Hinton broth at 37° C. The peptide Chex-pyrr-Dap dimer was also included in the study. […] (Cudic et al., 2002. Peptides 23: 271-283).
(§2) Following the protocol of Example 2, minimal inhibitory concentrations of the Chex1-Arg20 peptide against selected bacteria was determined. […] A3-APO was included for comparison.

Another experiment concerns E. coli HK131.
From the text: as §1, §2

In another experiment the test system is E. coli SOTE40.
From the text: as §1, §2

In a further experiment the test system is K. pneumoniae HK 186.
From the text: as §1, §2

A further experiment deals with P. aeruginosa 10.
From the text: as §1, §2

Another experiment concerns Escherichia coli 5770. Put plainly: Mouse survival after last dose, systemic infection model without cisplatin pretreatment. In kind it is in vivo. As for the experimental part: The survival rate and the dynamics of survival of mice after the last dose of an antibacterial peptide treatment (12 hours post-infection) were measured in a mouse model of Escherichia coli 5770 systemic infection. In this particular study, the animals were not pretreated with cisplatin. Ten animals were used in each group. […] In the control (infected, non-treated) and the imipenem treated rows, the first numbers reflect the number of surviving animals on the day of assay measuring the efficacy of the Chex1-Arg20 and the second numbers are the surviving control animals on the day of the A3-APO efficacy assay.

Values after ≈ are worked out from the molar mass of the structure shown. Square brackets hold non-standard residues; d marks the D form. Peptide text beside a SMILES is read from it. Ac6c = NC1(C(=O)O)CCCCC1

`CC(C)C[C@H](NC(=O)[C@H](Cc1ccc(O)cc1)NC(=O)[C@@H]1CCCN1C(=O)[C@H](CCCNC(=N)N)NC(=O)[C@@H]1CCCN1C(=O)[C@H](CCCCN)NC(=O)[C@H](CC(=O)O)NC(=O)[C@@H]1CCCN1C(=O)[C@H](CCCNC(=N)N)NC(=O)C1(N)CCCCC1)C(=O)N1CCC[C@H]1C(=O)N[C@@H](CCCNC(=N)N)C(=O)N1CCC[C@H]1C(=O)N[C@@H](CCCNC(=N)N)C(=O)N1CCC[C@H]1C(=O)N1CCC[C@H]1C(=O)N[C@@H](CCCNC(=N)N)C(=O)N1CCC[C@H]1C(=O)N[C@H](C(=O)N[C@@H](CCCNC(=N)N)C(=O)O)C(C)C` [Chex1-Arg20, Chex-Arg-Pro-Asp-Lys-Pro-Arg-Pro-Tyr-Leu-Pro-Arg-Pro-Arg--Pro-Pro-Arg-Pro-Val-Arg] (H-[Ac6c]RPDKPRPYLPRPRPPRPVR-OH; N-terminus and C-terminus assumed): the “MIC, E. coli HK101” value in the experiment on E. coli HK101 came to 0.5 µg/mL (≈ 0.202 µM). The “MIC, A. baumannii ATCC BBA-1605” value in experiment [1] was 16 µg/mL (≈ 6.46 µM). In the experiment on E. coli HK131, the “MIC, E. coli HK131” value was 1 µg/mL (≈ 0.404 µM). In addition, in the experiment on E. coli SOTE40, the “MIC, E. coli SOTE40” value came out at 2 µg/mL (≈ 0.808 µM). Besides, in the experiment on K. pneumoniae HK 186, the “MIC, K. pneumoniae HK 186” value worked out at 0.25 µg/mL (≈ 0.101 µM). For the same molecule, the “MIC, P. aeruginosa 10” value against P. aeruginosa 10 is 32 µg/mL (≈ 12.9 µM). The “number of surviving mice (10 animals each)” value (shortened to “number of surviving mice”) in the experiment on Escherichia coli 5770 (2.5 mg/kg, 0 h after last dose) is recorded as 10; in the experiment on Escherichia coli 5770 (2.5 mg/kg, 3 h after last dose), 7/7; with Escherichia coli 5770 (2.5 mg/kg, 6 h after last dose) it was 7; in the experiment on Escherichia coli 5770 (2.5 mg/kg, 9 h after last dose) it was 5; in the experiment on Escherichia coli 5770 (2.5 mg/kg, 12 h after last dose), 4; with Escherichia coli 5770 (5 mg/kg, 0 h after last dose), 9. Besides, the “number of surviving mice” value in the experiment on Escherichia coli 5770 (5 mg/kg, 3 h after last dose) is 9; in the experiment with Escherichia coli 5770 (5 mg/kg, 6 h after last dose), 8; in the experiment with Escherichia coli 5770 (5 mg/kg, 9 h after last dose), 6; with Escherichia coli 5770 (5 mg/kg, 12 h after last dose), 5; in the experiment with Escherichia coli 5770 (10 mg/kg, 0 h after last dose), 10; in the experiment with Escherichia coli 5770 (10 mg/kg, 3 h after last dose), 10. Further, the “number of surviving mice” value is on record as 10 with Escherichia coli 5770 (10 mg/kg, 6 h after last dose); 9 with Escherichia coli 5770 (10 mg/kg, 9 h after last dose); 5 with Escherichia coli 5770 (10 mg/kg, 12 h after last dose).

Source of the values: patent US8492515B2 (priority 2008, dated 2013).
